System: rat hepatoma cells
Assay: TBARS assay of ROS in cell lysates of rat hepatoma cells
Assay type: cell-based
Conditions: fatty acid alone
Outline: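 Rat hepatoma cells pre-incubated with DHA alone or DHA plus co-treatments (iron chelator DFX or lipid antioxidants), pulse-labelled 15 min with radiolabelled Met/Cys then chased in unlabelled medium. ROS in cell lysates at end of chase measured by standard TBARS assay, compared against BSA control.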

CCCCCCCC/C=C\CCCCCCCC(=O)O [OA, oleic acid]
reactive oxygen species (ROS), TBARS assay, fatty acid compared to BSA: does not increase
